Among the test systems are A498 renal; NCI-H522 lung; HCT-116 colon; HL-60(TB) leukemia; NCI/ADR-RES ovarian; RPMI-8226 leukemia; UACC-62 melanoma; HOP-92 NSCLC; LOX IMVI melanoma; NCI-H226 lung.
Common to all, as to assay: growth of human tumour cells (NCI), 48 h

The structures appear in SMILES notation.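 Results reflect a 48-hour exposure of cells in 96-well plates to compound at five concentrations. GI50: concentration for 50% inhibition of growth. TGI denotes the concentration required for complete inhibition of growth.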

As to `CCOc1cc(Cl)c(C(C)NC(=O)c2cccc(OC)c2)cc1OCC` (stereo not given), the GI50 in the assay on A498 renal is 0.561 µM; with NCI-H522 lung it was 5.04 µM; with HCT-116 colon, 4.48 µM; in the assay on HL-60(TB) leukemia, 3.96 µM; with NCI/ADR-RES ovarian, 4.18 µM; in the assay on RPMI-8226 leukemia, 16.1 µM. Besides, the GI50 with UACC-62 melanoma is 8.81 µM; in the assay with HOP-92 NSCLC it was 12.1 µM; in the assay with LOX IMVI melanoma it was 14.2 µM; in the assay with NCI-H226 lung it was 37.4 µM. In addition, the TGI in the assay with A498 renal was 21.9 µM; in the assay on NCI-H522 lung it was 39.7 µM; in the assay on HCT-116 colon, over 100 µM; in the assay with HL-60(TB) leukemia, over 100 µM; with NCI/ADR-RES ovarian, over 100 µM; with RPMI-8226 leukemia, over 100 µM. In addition, the TGI was over 100 µM in the assay on UACC-62 melanoma, over 85.6 µM with HOP-92 NSCLC, over 100 µM in the assay on LOX IMVI melanoma and over 100 µM in the assay on NCI-H226 lung.

For the molecule `CCOC(=O)C#Cc1cccc(C#CC(=O)OCC)c1`, the TGI in the assay with A498 renal is 36.2 µM; with NCI-H522 lung it was 30.9 µM; in the assay with HCT-116 colon, 7.1 µM; in the assay on HL-60(TB) leukemia, 4.06 µM; in the assay with NCI/ADR-RES ovarian it was 14.6 µM; in the assay with RPMI-8226 leukemia, 13 µM. The TGI with UACC-62 melanoma worked out at 9.53 µM; with HOP-92 NSCLC, 11.8 µM; with LOX IMVI melanoma, 5.83 µM; in the assay on NCI-H226 lung it was 22.1 µM.

In the case of `CC[C@]12C=CCN3CC[C@@]4(c5ccc(OC)cc5N(C)[C@H]4[C@@](O)(C(=O)OC)[C@@H]1OC(=O)CCC(=O)O[C@H]1CC[C@H]4[C@@H]5CCC6=CC(=O)CC[C@@H]6[C@H]5CC[C@]14C)[C@@H]32`, the GI50 with A498 renal was 1.38 µM; with NCI-H522 lung it was 1.8 µM; with HCT-116 colon it was 1.55 µM; with HL-60(TB) leukemia it was 1.07 µM; in the assay with NCI/ADR-RES ovarian it was 1.69 µM; in the assay with RPMI-8226 leukemia it was 1.07 µM. The GI50 with UACC-62 melanoma was 1.12 µM; in the assay on HOP-92 NSCLC, 1.07 µM; in the assay with LOX IMVI melanoma, 1.51 µM; in the assay on NCI-H226 lung it was 2.07 µM. In addition, the TGI was 9.42 µM with A498 renal; over 50 µM with NCI-H522 lung; over 50 µM in the assay on HCT-116 colon; 2.57 µM with HL-60(TB) leukemia; over 50 µM with NCI/ADR-RES ovarian; 3.11 µM in the assay on RPMI-8226 leukemia. In addition, the TGI was 3.13 µM with UACC-62 melanoma, 4.08 µM in the assay on HOP-92 NSCLC, 4.63 µM with LOX IMVI melanoma and over 50 µM in the assay with NCI-H226 lung.

On to `C=C(C(=O)c1ccccc1)C(NC(C)(C)C)c1ccccc1` (stereo not given), for which the GI50 with A498 renal was 1.7 µM; in the assay on NCI-H522 lung, 0.308 µM; in the assay on HCT-116 colon, 1.33 µM; in the assay with HL-60(TB) leukemia, 2.03 µM; with NCI/ADR-RES ovarian it was 2.63 µM; in the assay on RPMI-8226 leukemia, 1.84 µM. The GI50 in the assay with UACC-62 melanoma is 1.54 µM; in the assay on HOP-92 NSCLC it was 2.38 µM; in the assay with LOX IMVI melanoma it was 1.46 µM; in the assay on NCI-H226 lung it was 1.63 µM. The TGI in the assay with A498 renal is 3.25 µM; in the assay with NCI-H522 lung, 1.53 µM; in the assay with HCT-116 colon it was 2.92 µM; in the assay on HL-60(TB) leukemia, 7.82 µM; in the assay with NCI/ADR-RES ovarian, 12.4 µM; in the assay with RPMI-8226 leukemia, 6.44 µM. Moreover, the TGI is 4.02 µM in the assay with UACC-62 melanoma, 6.83 µM in the assay on HOP-92 NSCLC, 2.97 µM with LOX IMVI melanoma and 4.56 µM with NCI-H226 lung.

Turning to `COc1ccc(OC)c(C2=C(c3cn(C)c4ccccc34)C(=O)NC2=O)c1`, the GI50 in the assay with A498 renal was over 15.6 µM; with NCI-H522 lung, over 25 µM; in the assay with HCT-116 colon, over 25 µM; in the assay with HL-60(TB) leukemia, over 18.8 µM; in the assay with NCI/ADR-RES ovarian, over 25 µM; with RPMI-8226 leukemia it was over 25 µM. Also, the GI50 in the assay on UACC-62 melanoma, in the assay on HOP-92 NSCLC, in the assay on LOX IMVI melanoma and with NCI-H226 lung was over 25 µM throughout. Moreover, the TGI with A498 renal, in the assay on NCI-H522 lung, in the assay on HCT-116 colon, in the assay with HL-60(TB) leukemia, in the assay with NCI/ADR-RES ovarian and in the assay on RPMI-8226 leukemia was over 25 µM in each case. For the same molecule, the TGI with UACC-62 melanoma, with HOP-92 NSCLC, in the assay on LOX IMVI melanoma and in the assay on NCI-H226 lung was over 25 µM each time.

For the molecule `Cc1ccc(C2=NN(c3ccc(S(=O)(=O)NC(=O)NCc4ccccc4)cc3)C(c3ccc(N(C)C)cc3)C2)c(C)c1` (stereo not given), the GI50 is 3.08 µM in the assay with A498 renal; 4.48 µM in the assay with NCI-H522 lung; 4 µM with HCT-116 colon; 3.02 µM with HL-60(TB) leukemia; 3.93 µM in the assay on NCI/ADR-RES ovarian; 2.88 µM in the assay with RPMI-8226 leukemia. Besides, the GI50 in the assay with UACC-62 melanoma is 2.5 µM; with HOP-92 NSCLC it was 2.64 µM; in the assay on LOX IMVI melanoma it was 4.08 µM; with NCI-H226 lung it was 3.91 µM. Also, the TGI in the assay on A498 renal is 12.5 µM; in the assay on NCI-H522 lung it was 28.7 µM; in the assay on HCT-116 colon, 14.9 µM; with HL-60(TB) leukemia, 11.9 µM; in the assay with NCI/ADR-RES ovarian it was 25.1 µM; with RPMI-8226 leukemia, 10.6 µM. Besides, the TGI is 6.8 µM with UACC-62 melanoma, 8.58 µM in the assay on HOP-92 NSCLC, 14.1 µM in the assay on LOX IMVI melanoma and 15.9 µM with NCI-H226 lung.

Consider `COc1ccc2[nH]c(C(=O)OCc3ccc4c(Br)cc(Br)c(O)c4n3)cc2c1`, for which the GI50 with A498 renal is 1.8 µM; in the assay with NCI-H522 lung, 0.395 µM; with HCT-116 colon it was 0.187 µM; in the assay on HL-60(TB) leukemia, 0.7 µM; in the assay with NCI/ADR-RES ovarian, 1.68 µM; with RPMI-8226 leukemia it was 0.308 µM. The GI50 in the assay on UACC-62 melanoma is 1.06 µM; in the assay with HOP-92 NSCLC, 0.352 µM; in the assay with LOX IMVI melanoma it was 0.188 µM; in the assay on NCI-H226 lung, 1.3 µM. Moreover, the TGI was found to be 3.31 µM with A498 renal; 1.82 µM with NCI-H522 lung; 0.543 µM in the assay on HCT-116 colon; 3.41 µM with HL-60(TB) leukemia; 7.3 µM in the assay with NCI/ADR-RES ovarian; 1.29 µM in the assay with RPMI-8226 leukemia. In addition, the TGI in the assay on UACC-62 melanoma worked out at 2.29 µM; with HOP-92 NSCLC, 1.75 µM; in the assay on LOX IMVI melanoma, 0.453 µM; with NCI-H226 lung, 2.81 µM.

The values above are taken from PubChem BioAssay (NCI).
